In the supplement of paper PMC11061612:

Assays:
[1] = system: MKN1 (Gastric Carcinoma); test: Bliss excess, mean over the matrix (fraction); higher = more synergy
In short: (§1)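 Cell lines in DMEM/F12 or RPMI with 10% FBS were plated in 1536-well plates, held 24 hours at 37°C, 5% CO2, then given two-drug dose matrices for 72 hours (DMSO typically 0.2%). Viability was read by CellTiter-Glo 2.0 luminescence and scaled as inhibition from 0 (vehicle wells) to 1 (blank wells). Combination Emax is the second-highest inhibition in the matrix; Bliss excess is observed combination effect minus expected EA + EB − EA·EB, EA and EB being single-agent effects.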

[2] = system: NCI-H841 (Small Cell Lung Carcinoma); test: as above
In short: as §1

[3] = system: 22RV1 (Prostate Carcinoma); test: combination Emax (second highest fraction inhibited in the dose matrix, 72 h); higher = more inhibition; extreme values may be limits of the assay
In short: as §1

[4] = system: 769-P (Kidney Carcinoma); test: as above
In short: as §1

[5] = system: COLO-792 (Melanoma); test: as above
In short: as §1

[6] = system: EW-16 (Ewing's Sarcoma); test: as above
In short: as §1

[7] = system: IM-9 (Non-Cancerous); test: as above
In short: as §1

[8] = system: JIMT-1 (Breast Carcinoma); test: as above
In short: as §1

[9] = system: Jurkat (T-Lymphoblastic Leukemia); test: as above
In short: as §1

[10] = system: KP-N-YN (Neuroblastoma); test: as above
In short: as §1

[11] = system: MKN1 (Gastric Carcinoma); test: as above
In short: as §1

[12] = system: NCI-H1651 (Lung Adenocarcinoma); test: as above
In short: as §1

[13] = system: NCI-H841 (Small Cell Lung Carcinoma); test: as above
In short: as §1

[14] = system: WM1552C (Melanoma); test: as above
In short: as §1

[15] = system: TE-10 (Esophageal Squamous Cell Carcinoma); test: Bliss excess, mean over the matrix (fraction); higher = more synergy
In short: as §1

[16] = system: TE-10 (Esophageal Squamous Cell Carcinoma); test: combination Emax (second highest fraction inhibited in the dose matrix, 72 h); higher = more inhibition; extreme values may be limits of the assay
In short: as §1
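Throughout, for Bliss excess, mean over the matrix: after 72 h of two-drug dosing.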

SMILES | Bliss excess [1] | Bliss excess [2] | combination Emax [3] | combination Emax [4] | combination Emax [5] | combination Emax [6] | combination Emax [7] | combination Emax [8] | combination Emax [9] | combination Emax [10] | combination Emax [11] | combination Emax [12] | combination Emax [13] | combination Emax [14] | Bliss excess [15] | combination Emax [16]
COc1nnc2ccc(N3CCC(c4ccc(OCCN5CCN(C)C(=O)[C@H]5C)cc4)CC3)nn12 [AZD5153] + Cn1cnc2c(F)c(Nc3ccc(Br)cc3Cl)c(C(=O)NOCCO)cc21 [Selumetinib] (first compound max 1 µM, 7x7, partner max 10 µM) | -0.0081 | -0.0121 | 0.555 | 0.659 | 0.882 | 0.506 | 0.952 | 0.426 | 0.594 | 0.369 | 0.619 | 0.138 | 0.328 | 0.514 |  | 
Cc1c2c(nn1C)CSCc1cc(n(C)n1)CSc1cc(c3ccccc3c1)OCCCc1c(C(=O)O)n(C)c3c-2c(Cl)ccc13 [AZD5991] + CCN(CCO)CCCOc1ccc2c(Nc3cc(CC(=O)Nc4cccc(F)c4)[nH]n3)ncnc2c1 [AZD2811] (first compound max 1 µM, 7x7, partner max 1 µM) |  |  | 0.399 | 0.328 | 0.977 | 0.808 | 1 |  | 0.919 |  |  | 0.356 |  | 0.824 | -0.0161 | 0.848
NC1(C(=O)N[C@@H](CCO)c2ccc(Cl)cc2)CCN(c2ncnc3[nH]ccc23)CC1 [Capivasertib] + CC(=O)c1c(C)c2cnc(Nc3ccc(N4CCNCC4)cn3)nc2n(C2CCCC2)c1=O [Palbociclib] (first compound max 10 µM, 7x7, partner max 10 µM) | 0.0106 | -0.0365 | 0.639 | 0.773 | 0.465 | 0.44 | 0.706 | 0.246 | 0.849 | 0.301 | 0.463 | 0.0542 | 0.293 | 0.427 |  | 
NC1(C(=O)N[C@@H](CCO)c2ccc(Cl)cc2)CCN(c2ncnc3[nH]ccc23)CC1 [Capivasertib] + CC(C)n1c(=O)n(C)c2cnc3cc(F)c(-c4ccc(OCCCN5CCCCC5)nc4)cc3c21 [AZD1390] (first compound max 10 µM, 7x7, partner max 0.3 µM) | -0.0379 | -0.0909 | 0.527 | 0.34 | 0.444 | 0.296 | 0.577 | 0.202 | 0.697 | 0.359 | 0.39 | 0.149 | 0.273 | 0.305 |  | 
NC1(C(=O)N[C@@H](CCO)c2ccc(Cl)cc2)CCN(c2ncnc3[nH]ccc23)CC1 [Capivasertib] + CCN(CCO)CCCOc1ccc2c(Nc3cc(CC(=O)Nc4cccc(F)c4)[nH]n3)ncnc2c1 [AZD2811] (first compound max 10 µM, 7x7, partner max 1 µM) | -0.0067 | -0.0415 | 0.544 | 0.422 | 0.661 | 0.634 | 0.933 | 0.284 | 0.717 | 0.608 | 0.531 | 0.203 | 0.426 | 0.447 |  | 
NC1(C(=O)N[C@@H](CCO)c2ccc(Cl)cc2)CCN(c2ncnc3[nH]ccc23)CC1 [Capivasertib] + COc1nnc2ccc(N3CCC(c4ccc(OCCN5CCN(C)C(=O)[C@H]5C)cc4)CC3)nn12 [AZD5153] (first compound max 10 µM, 7x7, partner max 1 µM) | 0.0481 | -0.0002 | 0.649 | 0.729 | 0.94 | 0.515 | 0.811 | 0.446 | 0.992 | 0.478 | 0.782 | 0.0984 | 0.405 | 0.555 |  | 
NC1(C(=O)N[C@@H](CCO)c2ccc(Cl)cc2)CCN(c2ncnc3[nH]ccc23)CC1 [Capivasertib] + C[C@@H]1COCCN1C2=NC(=NC(=C2)C3(CC3)[S@](=N)(=O)C)C4=C5C=CNC5=NC=C4 [AZD6738] (first compound max 10 µM, 7x7, partner max 10 µM) | -0.0639 | -0.0622 | 0.76 | 0.88 | 0.549 | 0.784 | 0.979 | 0.612 | 0.961 | 0.962 | 0.807 | 0.581 | 0.457 | 0.651 |  | 
NC1(C(=O)N[C@@H](CCO)c2ccc(Cl)cc2)CCN(c2ncnc3[nH]ccc23)CC1 [Capivasertib] + Cn1cnc2c(F)c(Nc3ccc(Br)cc3Cl)c(C(=O)NOCCO)cc21 [Selumetinib] (first compound max 10 µM, 7x7, partner max 10 µM) | 0.081 | 0.0115 | 0.625 | 0.426 | 0.8 | 0.393 | 0.874 | 0.407 | 0.686 | 0.391 | 0.552 | 0.177 | 0.308 | 0.638 |  | 
CS(=O)(=O)CCNCc1ccc(-c2ccc3ncnc(Nc4ccc(OCc5cccc(F)c5)c(Cl)c4)c3c2)o1 [Lapatinib] + C[C@@H](Oc1cc(-c2cnn(C3CCNCC3)c2)cnc1N)c1c(Cl)ccc(F)c1Cl [Crizotinib] (first compound max 10 µM, 7x7, partner max 10 µM) | 0.0038 | -0.0378 | 0.706 | 0.966 | 0.981 | 0.969 | 0.991 | 0.851 | 0.947 | 0.755 | 0.922 | 0.566 | 0.356 | 0.921 |  | 
CC(=O)c1c(C)c2cnc(Nc3ccc(N4CCNCC4)cn3)nc2n(C2CCCC2)c1=O [Palbociclib] + CC1(C)CCC(CN2CCN(c3ccc(C(=O)NS(=O)(=O)c4ccc(NCC5CCOCC5)c([N+](=O)[O-])c4)c(Oc4cnc5[nH]ccc5c4)c3)CC2)=C(c2ccc(Cl)cc2)C1 [Venetoclax] (first compound max 10 µM, 7x7, partner max 1 µM) | -0.0394 | -0.0463 | 0.382 | 0.814 | 0.29 | 0.333 | 0.776 | 0.107 | 0.412 | 0.42 | 0.249 | 0.0383 | 0.0903 | 0.28 |  | 
CC(=O)c1c(C)c2cnc(Nc3ccc(N4CCNCC4)cn3)nc2n(C2CCCC2)c1=O [Palbociclib] + Cc1c2c(nn1C)CSCc1cc(n(C)n1)CSc1cc(c3ccccc3c1)OCCCc1c(C(=O)O)n(C)c3c-2c(Cl)ccc13 [AZD5991] (first compound max 10 µM, 7x7, partner max 1 µM) | -0.0238 | -0.0265 | 0.503 | 0.786 | 0.836 | 0.415 | 0.714 | 0.179 | 0.883 | 0.387 | 0.313 | 0.143 | 0.289 | 0.638 |  | 
CC(=O)c1c(C)c2cnc(Nc3ccc(N4CCNCC4)cn3)nc2n(C2CCCC2)c1=O [Palbociclib] + Cn1cnc2c(F)c(Nc3ccc(Br)cc3Cl)c(C(=O)NOCCO)cc21 [Selumetinib] (first compound max 10 µM, 7x7, partner max 10 µM) | -0.0001 | -0.0352 | 0.463 | 0.809 | 0.5 | 0.311 | 0.906 | 0.0628 | 0.386 | 0.318 | 0.332 | 0.0478 | 0.16 | 0.47 |  | 
CCc1c2c(nc3ccc(O)cc13)-c1cc3c(c(=O)n1C2)COC(=O)[C@]3(O)CC [SN-38] + O=C(c1cc(Cc2n[nH]c(=O)c3ccccc23)ccc1F)N1CCN(C(=O)C2CC2)CC1 [Olaparib] (first compound max 0.3 µM, 7x7, partner max 10 µM) |  |  | 0.697 | 0.734 | 0.484 | 0.981 | 1 | 0.267 |  | 0.491 |  | 0.902 |  | 0.609 | 0.0939 | 0.752
Cn1cnc2c(F)c(Nc3ccc(Br)cc3Cl)c(C(=O)NOCCO)cc21 [Selumetinib] + C=CCn1c(=O)c2cnc(Nc3ccc(N4CCN(C)CC4)cc3)nc2n1-c1cccc(C(C)(C)O)n1 [AZD1775] (first compound max 10 µM, partner max 1 µM) | -0.0326 | -0.0536 | 0.406 | 0.904 | 0.694 | 0.402 | 1 | 0.6 | 0.875 | 0.936 | 0.782 | 0.574 | 0.217 | 0.458 |  | 
Cn1cnc2c(F)c(Nc3ccc(Br)cc3Cl)c(C(=O)NOCCO)cc21 [Selumetinib] + CC(C)n1c(=O)n(C)c2cnc3cc(F)c(-c4ccc(OCCCN5CCCCC5)nc4)cc3c21 [AZD1390] (first compound max 10 µM, 7x7, partner max 0.3 µM) | -0.0173 | -0.0529 | 0.307 | 0.294 | 0.498 | 0.134 | 0.796 | 0.131 | 0.124 | 0.398 | 0.182 | 0.125 | 0.0728 | 0.384 |  | 
Cn1cnc2c(F)c(Nc3ccc(Br)cc3Cl)c(C(=O)NOCCO)cc21 [Selumetinib] + CCN(CCO)CCCOc1ccc2c(Nc3cc(CC(=O)Nc4cccc(F)c4)[nH]n3)ncnc2c1 [AZD2811] (first compound max 10 µM, 7x7, partner max 1 µM) | 0.002 | -0.0341 | 0.383 | 0.356 | 0.51 | 0.551 | 0.995 | 0.153 | 0.203 | 0.581 | 0.538 | 0.209 | 0.332 | 0.439 |  | 
Cn1cnc2c(F)c(Nc3ccc(Br)cc3Cl)c(C(=O)NOCCO)cc21 [Selumetinib] + C[C@@H]1COCCN1C2=NC(=NC(=C2)C3(CC3)[S@](=N)(=O)C)C4=C5C=CNC5=NC=C4 [AZD6738] (first compound max 10 µM, 7x7, partner max 10 µM) | 0.0183 | -0.0212 | 0.526 | 0.888 | 0.589 | 0.587 | 0.981 | 0.491 | 0.913 | 0.949 | 0.782 | 0.377 | 0.389 | 0.59 |  | 
